# Laboratory results as given in patent US9624167B2, “N-(4-hydroxy-4-methyl-cyclohexyl)-4-phenyl-benzenesulfonamides and N-(4-hydroxy-4-methyl-cyclohexyl)-4-(2-pyridyl)benzenesulfonamides and their therapeutic use” (PIMCO 2664 LIMITED, priority 2013, dated 2017).
# How the values were obtained:
# Assay type in all cases: cell-based
# CD4+ T-lymphocytes [1] = experiment: Human primary leucocyte viability: CD4+ T-lymphocytes; settings: 3 μM, 48 hours
# Method: (§1) The effects of the reference compound (ABD735) on the viability of neutrophils, monocytes, CD4+ and CD8+ T-cells and B-lymphocytes was assessed under both resting and stimulated conditions. Resting conditions were used to assess likely effects on normal cells found in human blood, and stimulated conditions were used to assess the effects of the compound under disease conditions.
# (§2) Effects on cell viability were assessed using flow cytometry. Flow cytometry is a laser-based, biophysical technology employed in cell counting, cell sorting, and biomarker detection, by suspending cells in a stream of fluid and passing them by an electronic detection apparatus. It allows simultaneous multi-parametric analysis of the physical and chemical characteristics of up to thousands of particles per second. The sorting of cells using flow cytometry requires the use of specific cell markers. To quantify cell numbers, counting beads are used as an internal standard. […] In addition, for B- and T-lymphocytes, cell proliferation was measured using a dye known as Cell Proliferation Dye (eFluor® 450). eFluor® 450 is an organic dye which can be conjugated to cell-specific markers. […]
# (§3) The average results (n=3) for the reference compound (ABD735) were expressed as a fold change versus the average control value. […]
# CD4+ T-lymphocytes [2] = experiment: Human primary leucocyte proliferation: CD4+ T-lymphocytes; settings: 3 μM, 5 days
# Method: as §2, with “standard. Counting beads are a calibrated suspension of microbeads which are added to a known volume of sample so the sample volume per bead is known.” for “standard.”
# PBMCs (peripheral blood mononuclear cells) were collected from healthy donors (all female) and isolated by centrifugation on a layer of Ficoll Paque (GE Healthcare, UK). […] Following incubation, the cells were stained with either anti-human CD8 or CD4 before being analysed on a flow cytometer. […]
# as §3
# Neutrophils = experiment: Human primary leucocyte viability: neutrophils; settings: 3 μM, 24 hours
# Method: as §1, §2, §3
# B-lymphocytes = experiment: Human primary leucocyte proliferation: B-lymphocytes; settings: 3 μM
# Method: as §2, with “standard. Counting beads are a calibrated suspension of microbeads which are added to a known volume of sample so the sample volume per bead is known.” for “standard.”
# PBMCs (peripheral blood mononuclear cells) were collected from healthy donors (all female) and isolated by centrifugation on a layer of Ficoll Paque (GE Healthcare, UK). […] Following incubation, the cells were stained with anti-human CD19, a marker of B-lymphocytes, before being analysed on a flow cytometer. […]
# as §3
structure (smiles),measurement,setting,value
Cc1cc(S(=O)(=O)N[C@H]2CC[C@H](O)CC2)ccc1-c1ccc(F)cc1F [ABD735],Fold change in viability,CD4+ T-lymphocytes [1]; no stimulation,0.9
same,Fold change in viability,CD4+ T-lymphocytes [1]; phytohaemagglutinin,0.6
same,Fold change in proliferation,CD4+ T-lymphocytes [2]; no stimulation,1
same,Fold change in proliferation,CD4+ T-lymphocytes [2]; phytohaemagglutinin,0.6
same,Fold change in viability,Neutrophils; Dexamethasone,0.8
same,Fold change in viability,Neutrophils; no stimulation,1.0
same,Fold change in proliferation,"B-lymphocytes; SAC/IL-2, 5 days",0.6
same,Fold change in proliferation,"B-lymphocytes; no stimulation, 5 days",0.9
